Patent publication US9133164B2, “MIF inhibitors and their uses” (INNOV88 LLC, priority 2011, dated 2015)
Read-outs that look alike come from different tables or passages of the source.

Legend:
LPS-stimulated PBMCs = assay: Cytokine production in LPS-stimulated human PBMCs (ELISA); format: cell-based; details: for inhibition at 2.5 µM / inhibition at 25 µM: Homo sapiens, PBMC
Excerpt: (§1) MIF is secreted by monocytes/macrophages, activated T cells and several effector cells that play an important role in the perpetuation of inflammatory responses of the disease pathogenesis of several autoimmune and inflammatory disorders. MIF promotes the production of proinflammatory mediators such as tumor necrosis factor-α (TNF-α), interleukin (IL)-1β, IL-6 and IL-8 acting in an autocrine and paracrine function in the induction of proinflammatory responses. MIF has also been reported to stimulate the production of IL-17, a T helper 17 (Th17)-specific cytokine critical to the pathogenesis of several autoimmune and inflammatory diseases. […] Mono-Mac-6 Cells: The cellular efficacy of compound candidates is determined using the human monocytic cell line, Mono-Mac-6 cells (MM6 cells) as it has been shown that MM6 cells abundantly express MIF receptors CD74 and CXCR4. MIF-mediated signal transduction through these receptors may be important for the production of inflammatory mediators, including TNF-α, IL-1β, IL-6, IL-8, interferon-γ (IFN-γ) and prostaglandin E2 (PGE2) in these cells. To induce the production of inflammatory mediators, MM6 cells will be plated at a final concentration of 5×10^5 cells/ml in RPMI 1640 medium containing 1% heat-inactivated low-pyrogen fetal bovine serum, 2 mM GlutaMAX-I, 1% non-essential amino acids, 1% sodium pyruvate, 100 units/ml penicillin G and 100 μg/ml streptomycin (Gibco BRL Life Technologies). Cells will be stimulated with 100 ng/ml rhMIF purchased commercially or generated in house with or without inhibitor for 20 h at 37° C. with 5% CO2. The supernatants are stored at […] until they are to be assayed. The levels of inflammatory mediators will be determined using commercial :ELISA kits (eBiosciences). Human Peripheral Blood Mononuclear Cells (PBMCs): The cellular efficacy of compound candidates in inhibiting the production of proinflammatory mediators TNF-α, IL-1β, IL-6 and IL-8 following lipopolysaccharide (LPS) and rhMIF stimulation, and the production of T helper 17 (Th17)-specific cytokines IL-17F and IL-22 following anti-CD3/anti-CD28 stimulation, are determined in human PBMCs. To induce the production of proinflammatory cytokine mediators, cryopreserved human PBMCs (Cellular Technology Ltd.) are plated at a final concentration of 2×10^5 cells/ml in RPMI 1640 medium containing 1% heat-inactivated fetal bovine serum, 1% L-Glutamine and 1% Penicillin/Streptomycin (Lonza). Cells are pre-incubated with or without inhibitor compounds dissolved in DMSO for 1 hour, then stimulated with LPS (Sigma Aldrich) or rhMIF to yield final concentrations of <0.1% DMSO, 100 ng/ml LPS and the compound concentration of interest. The potency of the compound candidates in inhibiting cytokine production is compared, to other small molecule MIF inhibitor standards ISO-1 (EMD Chemicals) N-acetyl-p-benzoquinone imine (NAPQI) and Ibudilast (TCI America). Cells were incubated for 20 hours at 37° C., 5% CO2. For the Th17-specific cytokine production assay, cells are stimulated with 5 ug/mL plate immobilized anti-CD3 (eBioscience) and 2 ug/mL soluble anti-CD28 (eBioscience) in the presence or absence of inhibitor compounds dissolved in DMSO to yield final compound concentrations of interest at <0.1% DMSO. Cells were incubated for 72 hours at 37° C. and 5% CO2. The supernatants are stored at −20° C. until they are to be assayed by ELISA. Cell viability is determined using PrestoBlue™ Cell Viability Reagent (Invitrogen). The cytokine production levels of TNF-α, IL-1β, IL-6, IL-8, IL-17F and IL-22 are determined using commercial ELISA kits (eBiosciences). Human Rheumatoid Arthritis Synovial Fibroblast (RASF) Cell Line: RASF cells are cultured in Dulbecco's modified Eagle's medium with 15% FBS, 1% glutamine, and 1% penicillin/streptamycin (all from Gibco (Invitrogen), Gaithersburg, Md.). […]

MIF = target: T1, MIF (Homo sapiens, UniProt P14174); assay: Time dependence in the MIF tautomerase activity assay (preincubation); format: biochemical
T1 sequence (P14174 2-115 limits assumed): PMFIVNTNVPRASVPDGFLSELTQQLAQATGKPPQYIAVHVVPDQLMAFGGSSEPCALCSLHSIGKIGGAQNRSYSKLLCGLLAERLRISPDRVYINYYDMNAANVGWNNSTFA
Method: (§2) The ability of candidate compounds to inhibit this tautomerase activity is quantitated by wing hydroxyphenyl pyruvic acid (HPP) as a substrate and following the increase in absorbance due to the enzymatic formation of the HPP enol-borate complex at 300 nm in the absence and presence of a test compound. The IC50 value of compounds was determined by plotting the initial velocities determined at 300 nm as a function of a test compound's concentration. Assays were carried out in a 96 or 384 well plate format.
The MIF tautomerase and cytokine inhibitor Compound 1 was designed as a potential irreversible inhibitor of MIF tautomerase activity. In an effort to investigate this mechanism, time dependent inhibitor analysis was carried out. In this experiment MIF was preincubated [P.I.] with Compound 1 for either 0 minutes, 20 minutes or 60 minutes followed by tautomerase enzyme activity determination.
Compound 1 was preincubated with MIF as indicated (0 min-60 min) and, a tautomerase dose-response analysis was carried out.

[1] = tested on: anti-CD3/anti-CD28-stimulated PBMCs; assay: Th17-specific cytokine production in anti-CD3/anti-CD28-stimulated human PBMCs (ELISA); format: cell-based; details: PBMC, compound at 2.5 uM, 72 hours
Excerpt: as §1, with “Cells are pre-incubated with or without inhibitor compounds dissolved in DMSO for 1 hour, then stimulated with LPS (Sigma Aldrich) or rhMIF to yield final concentrations of <0.1% DMSO, 100 ng/ml LPS and the compound concentration of interest. The potency of the compound candidates in inhibiting cytokine production is compared, to other small molecule MIF inhibitor standards ISO-1 (EMD Chemicals) N-acetyl-p-benzoquinone imine (NAPQI) and Ibudilast (TCI America). Cells were incubated for 20 hours at 37° C., 5% CO2. For the Th17-specific cytokine production assay, cells are stimulated with 5 ug/mL plate immobilized anti-CD3 (eBioscience) and 2 ug/mL soluble anti-CD28 (eBioscience) in the presence or absence of inhibitor compounds dissolved in DMSO to yield final compound concentrations of interest at <0.1% DMSO. Cells were incubated for 72 hours at 37° C. and 5% CO2. The supernatants are stored at −20° C. until they are to be assayed by ELISA.” left out, “(eBiosciences).” for “(eBiosciences). Human Rheumatoid Arthritis Synovial Fibroblast (RASF) Cell Line: RASF cells are cultured in Dulbecco's modified Eagle's medium with 15% FBS, 1% glutamine, and 1% penicillin/streptamycin (all from Gibco (Invitrogen), Gaithersburg, Md.).”

Native human MIF = target: T2, Native human MIF (Homo sapiens, UniProt P14174); assay: MIF tautomerase activity assay (HPP substrate); format: biochemical; details: absorbance at 300 nm
T2 sequence (P14174 2-115 limits assumed): T1 sequence (P14174 2-115 limits assumed)
Method: as §2
Representative MIF inhibitors were tested in the assay described above and the results tabulated in Table 1 wherein “A” represents ≦1 μM; “B” represents >1 μM and ≦100 μM; “C” represents >100 μM

[2] = LPS-stimulated PBMCs, compound at 2.5 uM, 1 hour preincubation, 20 hours, read-out: percent inhibition of IL-1β production
[3] = LPS-stimulated PBMCs, compound at 2.5 uM, 1 hour preincubation, 20 hours, read-out: percent inhibition of IL-6 production
[4] = LPS-stimulated PBMCs, compound at 2.5 uM, 1 hour preincubation, 20 hours, read-out: percent inhibition of IL-8 production
[5] = LPS-stimulated PBMCs, compound at 2.5 uM, 1 hour preincubation, 20 hours, read-out: percent inhibition of TNF-α production
[6] = LPS-stimulated PBMCs, compound at 25 uM, 1 hour preincubation, 20 hours, read-out: percent inhibition of IL-1β production
[7] = LPS-stimulated PBMCs, compound at 25 uM, 1 hour preincubation, 20 hours, read-out: percent inhibition of IL-6 production
[8] = LPS-stimulated PBMCs, compound at 25 uM, 1 hour preincubation, 20 hours, read-out: percent inhibition of IL-8 production
[9] = LPS-stimulated PBMCs, compound at 25 uM, 1 hour preincubation, 20 hours, read-out: percent inhibition of TNF-α production
[10] = read-out: percent inhibition of IL-17F production
[11] = read-out: percent inhibition of IL-22 production
[12] = LPS-stimulated PBMCs, ISO-1 at 5.0 uM, 20 hours
[13] = LPS-stimulated PBMCs, ISO-1 at 50 uM, 20 hours
[14] = read-out: percent inhibition of IL-1β production
[15] = read-out: percent inhibition of IL-6 production
[16] = read-out: percent inhibition of IL-8 production
[17] = read-out: percent inhibition of TNF-α production

IC50 (Native human MIF) [µM]	SMILES	inhibition at 2.5 µM (LPS-stimulated PBMCs; [2]) [%]	inhibition at 2.5 µM (LPS-stimulated PBMCs; [3]) [%]	inhibition at 2.5 µM (LPS-stimulated PBMCs; [4]) [%]	inhibition at 2.5 µM (LPS-stimulated PBMCs; [5]) [%]	inhibition at 25 µM (LPS-stimulated PBMCs; [6]) [%]	inhibition at 25 µM (LPS-stimulated PBMCs; [7]) [%]	inhibition at 25 µM (LPS-stimulated PBMCs; [8]) [%]	inhibition at 25 µM (LPS-stimulated PBMCs; [9]) [%]	further results
1 to 100	N#Cc1c(NC2CN(C(=O)CCl)C2)c2ccccc2n(Cc2ccc(F)cc2)c1=O [Compound 1, 4-[1-(2-Chloro-acetyl)-azetidin-3-ylamino]-1-(4-fluoro-benzyl)-2-oxo-1,2-dihydro-quinoline-3-carbonitrile]	> 70	10 to 50	10 to 50	10 to 50	> 70	> 70	50 to 70	> 70	IC50 (MIF; 0 minutes, no preincubation with MIF): 24 µM; IC50 (MIF; 20 minutes preincubation with MIF): 6 µM; IC50 (MIF; 60 minutes preincubation with MIF): 3 µM; inhibition at 2.5 µM [1, 10]: > 70%; inhibition at 2.5 µM [1, 11]: > 70%
1 to 100	C=CC(=O)N1CCN(c2c(C#N)c(=O)n(Cc3ccc(F)cc3)c3ccccc23)CC1 [Compound 2, 4-(4-acryloylpiperazin-1-yl)-1-(4-fluorobenzyl)-2-oxo-1,2-dihydroquinoline-3-carbonitrile]	> 70	< 10	< 10	10 to 50	> 70	< 10	< 10	> 70	inhibition at 2.5 µM [1, 10]: > 70%; inhibition at 2.5 µM [1, 11]: 10 to 50%
> 100	C=CC(=O)N1CC(Nc2c(C#N)c(=O)n(CCOCC)c3ccccc23)C1 [Compound 3, 4-(1-Acryloyl-azetidin-3-ylamino)-1-(2-ethoxy-ethyl)-2-oxo-1,2-dihydro-quinoline-3-carbonitrile]	50 to 70	< 10	< 10	< 10	10 to 50	< 10	< 10	10 to 50	
> 100	C=CC(=O)N1CCC(Nc2c(C#N)c(=O)n(C)c3ccccc23)CC1 [Compound 4, 4-(1-Acryloyl-piperidin-4-ylamino)-1-methyl-2-oxo-1,2-dihydro-quinoline-3-carbonitrile]	10 to 50	10 to 50	< 10	< 10	50 to 70	< 10	< 10	10 to 50	
≤ 1	Cn1c(=O)c(C#N)c(NC2CCN(C(=O)c3cccs3)CC2)c2ccccc21 [Compound 5]	50 to 70	10 to 50	< 10	10 to 50	> 70	< 10	< 10	50 to 70	
≤ 1	Cn1c(=O)c(C#N)c(NC2CN(C(=O)c3cccs3)C2)c2ccccc21 [Compound 6]	10 to 50	10 to 50	< 10	10 to 50	10 to 50	10 to 50	< 10	10 to 50	
≤ 1	N#Cc1c(NC2CN(C(=O)c3ccncc3)C2)c2ccccc2n(Cc2ccc(F)cc2)c1=O [Compound 7]	50 to 70	10 to 50	< 10	10 to 50	> 70	< 10	< 10	> 70	
≤ 1	N#Cc1c(NC2CN(C(=O)c3cccs3)C2)c2ccccc2n(Cc2ccc(F)cc2)c1=O [Compound 8]	50 to 70	< 10	< 10	10 to 50	> 70	10 to 50	< 10	10 to 50	
	COC(=O)CC1CC(c2ccc(O)cc2)=NO1 (stereo not shown) [ISO-1, reference compound]									percent inhibition of IL-1β production (LPS-stimulated PBMCs; [12]): F (“F” represents >50% inhibition and ≦70% inhibition); percent inhibition of IL-6 production (LPS-stimulated PBMCs; [12]): D (“D” represents ≦10% inhibition); percent inhibition of IL-8 production (LPS-stimulated PBMCs; [12]): D (“D” represents ≦10% inhibition); percent inhibition of TNF-α production (LPS-stimulated PBMCs; [12]): E (“E” represents >10% inhibition and ≦50% inhibition); percent inhibition of IL-1β production (LPS-stimulated PBMCs; [13]): G (“G” represents >70% inhibition); percent inhibition of IL-6 production (LPS-stimulated PBMCs; [13]): F (“F” represents >50% inhibition and ≦70% inhibition); percent inhibition of IL-8 production (LPS-stimulated PBMCs; [13]): E (“E” represents >10% inhibition and ≦50% inhibition); percent inhibition of TNF-α production (LPS-stimulated PBMCs; [13]): G (“G” represents >70% inhibition)
	CC(C)C(=O)c1c(C(C)C)nn2ccccc12 [Ibudilast, reference compound]	50 to 70	< 10	< 10	> 70	> 70	< 10	< 10	> 70	
	CC(=O)N=C1C=CC(=O)C=C1 [NAPQI, N-acetyl-p-benzoquinone imine, reference compound]									inhibition at 2.5 µM (LPS-stimulated PBMCs; [14]): 10 to 50%; inhibition at 25 µM (LPS-stimulated PBMCs; [14]): > 70%; inhibition at 2.5 µM (LPS-stimulated PBMCs; [15]): < 10%; inhibition at 25 µM (LPS-stimulated PBMCs; [15]): < 10%; inhibition at 2.5 µM (LPS-stimulated PBMCs; [16]): < 10%; inhibition at 25 µM (LPS-stimulated PBMCs; [16]): < 10%; inhibition at 2.5 µM (LPS-stimulated PBMCs; [17]): < 10%; inhibition at 25 µM (LPS-stimulated PBMCs; [17]): > 70%
